The record followed here is patent US20190322676A1, “CERAMIDE GALACTOSYLTRANSFERASE INHIBITORS FOR THE TREATMENT OF DISEASE” (BioMarin Pharmaceutical Inc., priority 2016, published 2019).

SMILES strings stand for the structures. Counter-ions that a name gives are not always drawn.

For the assay, the target named is T1, human CGT (ceramide galactosyltransferase), CHO/CGT lysate (Homo sapiens, UniProt Q16880).
T1 construct: Full-length human CGT cDNA was cloned into the BamH1/Xho1 site of pcDNA3.1 (+); expressed in transfected cells; host or cells: Chinese hamster ovary (CHO) cells; lysate prepared with M-PER
T1 sequence (Q16880 21-541): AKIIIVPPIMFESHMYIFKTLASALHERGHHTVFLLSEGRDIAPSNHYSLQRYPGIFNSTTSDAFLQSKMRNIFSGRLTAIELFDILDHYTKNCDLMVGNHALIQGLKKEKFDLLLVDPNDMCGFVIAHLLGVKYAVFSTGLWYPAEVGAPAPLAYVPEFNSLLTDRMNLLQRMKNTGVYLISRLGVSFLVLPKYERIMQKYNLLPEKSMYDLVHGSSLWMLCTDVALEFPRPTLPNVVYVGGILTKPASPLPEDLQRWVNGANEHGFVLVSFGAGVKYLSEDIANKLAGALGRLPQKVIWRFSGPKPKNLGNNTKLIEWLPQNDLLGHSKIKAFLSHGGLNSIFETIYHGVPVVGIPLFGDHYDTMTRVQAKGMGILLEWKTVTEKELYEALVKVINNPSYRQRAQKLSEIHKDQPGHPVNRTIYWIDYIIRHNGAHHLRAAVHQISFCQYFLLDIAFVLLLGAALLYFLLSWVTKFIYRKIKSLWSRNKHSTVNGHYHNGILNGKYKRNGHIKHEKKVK
In words: CGT enzyme assay, RapidFire/MS/MS readout (Table 1 ranges with one asterisk *). The format is biochemical. The note with it: RapidFire method (range with one asterisk *). In short, it runs like this:
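Lysate (4 μg) of CHO cells transfected with full-length human CGT incubated 1 h at 37 °C with compound (0.001–50 μM) in pH 7.2 HEPES buffer with 10 μM C6-NBD-dihydro-ceramide, 17.5 μM UDP-galactose, Mg2+/Mn2+, CHAPS, BSA, 0.5% DMSO; ** set also contained 0.01% Tween 80. Product quantified by RapidFire/MS/MS, normalized to internal standard; IC50 from sigmoidal variable-slope fits.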

With `NC1CCN(C(=O)[C@H](NS(=O)(=O)c2ccc3cc(OC4CCCC4)ccc3c2)C(F)(F)c2ccc(-c3ccccc3)cc2)CC1` [Compound 43-2, (S)—N-(1-([1,1′-biphenyl]-4-yl)-3-(4-aminopiperidin-1-yl)-1,1-difluoro-3-oxopropan-2-yl)-6-(cyclopentyloxy)naphthalene-2-sulfonamide], the IC50 is 1 to 10 µM.

`CN([C@H](C(=O)N1CCC(N)CC1)C(F)(F)c1ccc(Br)cc1)S(=O)(=O)c1ccc2cc(OC3CCCC3)ccc2c1` [Compound 44-1, (R)—N-(3-(4-aminopiperidin-1-yl)-1-(4-bromophenyl)-1,1-difluoro-3-oxopropan-2-yl)-6-(cyclopentyloxy)-N-methylnaphthalene-2-sulfonamide] gave an IC50 of less than 1 µM.

For the compound `CN([C@@H](C(=O)N1CCC(N)CC1)C(F)(F)c1ccc(Br)cc1)S(=O)(=O)c1ccc2cc(OC3CCCC3)ccc2c1` [Compound 44-2, (S)—N-(3-(4-aminopiperidin-1-yl)-1-(4-bromophenyl)-1,1-difluoro-3-oxopropan-2-yl)-6-(cyclopentyloxy)-N-methylnaphthalene-2-sulfonamide], the IC50 fell in the range of 1 to 10 µM.

As for `COc1ccc(C(F)(F)[C@H](NS(=O)(=O)c2ccc3cc(OC4CCCC4)ccc3c2)C(=O)N2C3CCC2CC(N)C3)cc1` (stereo partly drawn) [Compound 45-1, N-((2R)-3-(3-amino-8-azabicyclo[3.2.1]octan-8-yl)-1,1-difluoro-1-(4-methoxyphenyl)-3-oxopropan-2-yl)-6-(cyclopentyloxy)naphthalene-2-sulfonamide], the IC50 lay in the range of 10 to 30 µM.

As for `COc1ccc(C(F)(F)[C@@H](NS(=O)(=O)c2ccc3cc(OC4CCCC4)ccc3c2)C(=O)N2C3CCC2CC(N)C3)cc1` (stereo partly drawn) [Compound 45-2, N-((2S)-3-(3-amino-8-azabicyclo[3.2.1]octan-8-yl)-1,1-difluoro-1-(4-methoxyphenyl)-3-oxopropan-2-yl)-6-(cyclopentyloxy)naphthalene-2-sulfonamide], the IC50 was in the range of 1 to 10 µM.

`CC(C)Oc1ccc2cc(S(=O)(=O)N(C)[C@H](C(=O)N3C4CCC3CC(N)C4)C(F)(F)c3ccc(Br)cc3)ccc2c1` (stereo partly drawn) [Compound 46-1, N-((2R)-3-(3-amino-8-azabicyclo[3.2.1]octan-8-yl)-1-(4-bromophenyl)-1,1-difluoro-3-oxopropan-2-yl)-6-isopropoxy-N-methylnaphthalene-2-sulfonamide trifluoroacetate] showed an IC50 of 1 to 10 µM.

`CC(C)Oc1ccc2cc(S(=O)(=O)N(C)[C@@H](C(=O)N3C4CCC3CC(N)C4)C(F)(F)c3ccc(Br)cc3)ccc2c1` (stereo partly drawn) [Compound 46-2, N-((2S)-3-(3-amino-8-azabicyclo[3.2.1]octan-8-yl)-1-(4-bromophenyl)-1,1-difluoro-3-oxopropan-2-yl)-6-isopropoxy-N-methylnaphthalene-2-sulfonamide trifluoroacetate] returned an IC50 of 30 to 100 µM.

For `NC1CC2CCC(C1)N2C(=O)[C@@H](NS(=O)(=O)c1ccc2cc(OC3CCC3)ccc2c1)C(F)(F)c1ccc(Br)cc1` (stereo partly drawn) [Compound 47-1, N-((2R)-3-(3-amino-8-azabicyclo[3.2.1]octan-8-yl)-1-(4-bromophenyl)-1,1-difluoro-3-oxopropan-2-yl)-6-cyclobutoxynaphthalene-2-sulfonamide], the IC50 lay in the range of 1 to 10 µM.

The compound `NC1CC2CCC(C1)N2C(=O)[C@H](NS(=O)(=O)c1ccc2cc(OC3CCC3)ccc2c1)C(F)(F)c1ccc(Br)cc1` (stereo partly drawn) [Compound 47-2, N-((2S)-3-(3-amino-8-azabicyclo[3.2.1]octan-8-yl)-1-(4-bromophenyl)-1,1-difluoro-3-oxopropan-2-yl)-6-cyclobutoxynaphthalene-2-sulfonamide] gave an IC50 of 10 to 30 µM.

In turn, `CN([C@H](C(=O)N1C2CCC1CC(N)C2)C(F)(F)c1ccc(-c2ccccc2)cc1)S(=O)(=O)c1ccc2cc(OC3CCCC3)ccc2c1` (stereo partly drawn) [Compound 49-1, N-((2R)-1-([1,1′-biphenyl]-4-yl)-3-(3-amino-8-azabicyclo[3.2.1]octan-8-yl)-1,1-difluoro-3-oxopropan-2-yl)-6-(cyclopentyloxy)-N-methylnaphthalene-2-sulfonamide] displayed an IC50 of 1 to 10 µM.

`CN([C@@H](C(=O)N1C2CCC1CC(N)C2)C(F)(F)c1ccc(-c2ccccc2)cc1)S(=O)(=O)c1ccc2cc(OC3CCCC3)ccc2c1` (stereo partly drawn) [Compound 49-2, N-((2S)-1-([1,1′-biphenyl]-4-yl)-3-(3-amino-8-azabicyclo[3.2.1]octan-8-yl)-1,1-difluoro-3-oxopropan-2-yl)-6-(cyclopentyloxy)-N-methylnaphthalene-2-sulfonamide]: the concentration for half-maximal inhibition (IC50) was 10 to 30 µM.

As for `NC1CC2CCC(C1)N2C(=O)[C@@H](NS(=O)(=O)c1ccc(OCC2CCCCC2)cc1)C(F)(F)c1ccc(-c2ccc(Cl)cc2)cc1` (stereo partly drawn) [Compound 50-1, N-((2R)-3-(3-amino-8-azabicyclo[3.2.1]octan-8-yl)-1-(4′-chloro-[1,1′-biphenyl]-4-yl)-1,1-difluoro-3-oxopropan-2-yl)-4-(cyclohexylmethoxy) benzenesulfonamide trifluoroacetate], the IC50 is less than 1 µM.

As for `NC1CC2CCC(C1)N2C(=O)[C@H](NS(=O)(=O)c1ccc(OCC2CCCCC2)cc1)C(F)(F)c1ccc(-c2ccc(Cl)cc2)cc1` (stereo partly drawn) [Compound 50-2, N-((2S)-3-(3-amino-8-azabicyclo[3.2.1]octan-8-yl)-1-(4′-chloro-[1,1′-biphenyl]-4-yl)-1,1-difluoro-3-oxopropan-2-yl)-4-(cyclohexylmethoxy)benzenesulfonamide trifluoroacetate], the IC50 is 10 to 30 µM.

In turn, `CCCCOc1ccc(C(F)(F)[C@@H](C(=O)N2C3CCC2CC(N)C3)N(C)S(=O)(=O)c2ccc3cc(OC4CCCC4)ccc3c2)cc1` (stereo partly drawn) [Compound 51-1, N-((2R)-3-(3-amino-8-azabicyclo[3.2.1]octan-8-yl)-1-(4-butoxyphenyl)-1,1-difluoro-3-oxopropan-2-yl)-6-(cyclopentyloxy)-N-methylnaphthalene-2-sulfonamide] gave an IC50 of 1 to 10 µM.

For `CCCCOc1ccc(C(F)(F)[C@H](C(=O)N2C3CCC2CC(N)C3)N(C)S(=O)(=O)c2ccc3cc(OC4CCCC4)ccc3c2)cc1` (stereo partly drawn) [Compound 51-2, N-((2S)-3-(3-amino-8-azabicyclo[3.2.1]octan-8-yl)-1-(4-butoxyphenyl)-1,1-difluoro-3-oxopropan-2-yl)-6-(cyclopentyloxy)-N-methylnaphthalene-2-sulfonamide], the IC50 was in the range of 1 to 10 µM.

`CN([C@H](C(=O)N1C2CCC1CC(N)C2)C(F)(F)c1ccc(Cl)cc1)S(=O)(=O)c1ccc2cc(OC3CCCC3)ccc2c1` (stereo partly drawn) [Compound 52-1, N-((2R)-3-(3-amino-8-azabicyclo[3.2.1]octan-8-yl)-1-(4-chlorophenyl)-1,1-difluoro-3-oxopropan-2-yl)-6-(cyclopentyloxy)-N-methylnaphthalene-2-sulfonamide] had an IC50 of less than 1 µM.

Compound `CN([C@@H](C(=O)N1C2CCC1CC(N)C2)C(F)(F)c1ccc(Cl)cc1)S(=O)(=O)c1ccc2cc(OC3CCCC3)ccc2c1` (stereo partly drawn) [Compound 52-2, N-((2S)-3-(3-amino-8-azabicyclo[3.2.1]octan-8-yl)-1-(4-chlorophenyl)-1,1-difluoro-3-oxopropan-2-yl)-6-(cyclopentyloxy)-N-methylnaphthalene-2-sulfonamide] displayed an IC50 of 30 to 100 µM.

The compound `CCCCOc1ccc(C(F)(F)[C@@H](C(=O)N2CCC(N)CC2)N(C)S(=O)(=O)c2ccc3cc(OC4CCCC4)ccc3c2)cc1` [Compound 53-1, (R)—N-(3-(4-aminopiperidin-1-yl)-1-(4-butoxyphenyl)-1,1-difluoro-3-oxopropan-2-yl)-6-(cyclopentyloxy)-N-methylnaphthalene-2-sulfonamide] returned an IC50 of 1 to 10 µM.

On to `CCCCOc1ccc(C(F)(F)[C@H](C(=O)N2CCC(N)CC2)N(C)S(=O)(=O)c2ccc3cc(OC4CCCC4)ccc3c2)cc1` [Compound 53-2, (S)—N-(3-(4-aminopiperidin-1-yl)-1-(4-butoxyphenyl)-1,1-difluoro-3-oxopropan-2-yl)-6-(cyclopentyloxy)-N-methylnaphthalene-2-sulfonamide], for which the IC50 was 10 to 30 µM.

`NC1CC2CCC(C1)N2C(=O)[C@@H](NS(=O)(=O)c1ccc2cc(OC3CCCC3)ccc2c1)C(F)(F)c1ccc(C(F)(F)F)cc1` (stereo partly drawn) [Compound 54-1, N-((2R)-3-(3-amino-8-azabicyclo[3.2.1]octan-8-yl)-1,1-difluoro-3-oxo-1-(4-(trifluoromethyl)phenyl)propan-2-yl)-6-(cyclopentyloxy)naphthalene-2-sulfonamide] showed an IC50 of less than 1 µM.

The compound `NC1CC2CCC(C1)N2C(=O)[C@H](NS(=O)(=O)c1ccc2cc(OC3CCCC3)ccc2c1)C(F)(F)c1ccc(C(F)(F)F)cc1` (stereo partly drawn) [Compound 54-2, N-((2S)-3-(3-amino-8-azabicyclo[3.2.1]octan-8-yl)-1,1-difluoro-3-oxo-1-(4-(trifluoromethyl)phenyl)propan-2-yl)-6-(cyclopentyloxy) naphthalene-2-sulfonamide] came in with a half-inhibitory concentration (IC50) of 10 to 30 µM.

The IC50 is the concentration that gives 50% inhibition. Read a low IC50 as higher potency.
